# According to patent US9593140B2, “Antibacterial tylosin derivatives and methods for their preparation” (Bayer Intellectual Property GmbH, priority 2011, dated 2017):
# Test system: Mannhemia hemolytica KB345
# Test: Paper disc assay, M. hemolytica KB345 (Tilmicosin-sensitivity strain)
# Format: cell-based
# Details: 24 h, Table 2; for zone of inhibition at 1 mg/disc: 1 mg/6 mm disk; for zone of inhibition at 3 mg/disc: 3 mg/6 mm disk; for zone of inhibition at 10 mg/disc: 10 mg/6 mm disk; for zone of inhibition at 30 mg/disc: 30 mg/6 mm disk; for zone of inhibition at 100 mg/disc: 100 mg/6 mm disk
# Experimental: (1) Antibacterial Activities Against Mannheimia and Pasteurella were Determined by the Following Steps:
# 1) M. hemolytica KB345 (Tilmicosin-sensitivity strain) and M. hemolytica KB346 (Tilmicosin-low sensitivity strain) were provided. KB 345 strain stored at −80° C. was seeded to BHIB agar medium (10 mL) by using Microbank beads (Pro-Lab) and platinum nail. After statically incubating the KB 345 strain for 24 hours at 37° C., it was seeded to maintaining slant BHIB agar medium (7 mL) by using platinum loop, further statically incubated for 24 hours at 37° C. to obtain slant. One platinum loop of KB 345 strain stored at the slant was inoculated into a large test tube charged with BHIB liquid medium (10 mL) and then incubated for 24 hours at 37° C. with shaking.
# 2) A paper disc (ADVANTEC, Φ:6 mm) was impregnated with a solution of test compound and dried under reduced pressure.
# 3) To a melted BHIB agar medium was inoculated 1% of the broth obtained from step 1) above to prepare a test plate. After the medium set, the paper disc prepared in step 2) above was put on the plate and it was incubated at 37° C.
# 4) After one day, the inhibition zone diameter and clarity (A to E) were determined.
Compound,zone of inhibition at 1 mg/disc,zone of inhibition at 3 mg/disc,zone of inhibition at 10 mg/disc,zone of inhibition at 30 mg/disc,zone of inhibition at 100 mg/disc
"CCCNC[C@]1(O)[C@H](C)O[C@@H](O[C@H]2[C@H](C)[C@@H](O[C@@H]3O[C@H](C)C[C@H](N(C)C)[C@H]3O)[C@](C)(O)C[C@@H](C)CN[C@H](C)[C@@H](O)[C@](C)(O)[C@@H](CC)OC(=O)[C@@H]2C)C[C@@]1(C)OC [Tulathromycin, reference compound]",12.5 mm,16 mm,18 mm,–,–
CC[C@H]1OC(=O)C[C@@H](O)[C@H](C)[C@@H](O[C@@H]2O[C@H](C)[C@@H](O[C@H]3C[C@@](C)(O)[C@@H](O)[C@H](C)O3)[C@H](N(C)C)[C@H]2O)[C@@H](CC=O)C[C@@H](C)C(=O)/C=C/C(C)=C/[C@@H]1CO[C@@H]1O[C@H](C)[C@@H](O)[C@@H](OC)[C@H]1OC [Tylosin],–,–,–,10.5 mm,11 mm
"CC[C@H]1OC(=O)C[C@@H](O)[C@H](C)[C@@H](O[C@@H]2OC(C)[C@@H](O)C(N(C)C)C2O)[C@@H](CCn2cc(-c3cccnc3)nn2)C[C@@H](C)C(=O)/C=C/C(C)=C/[C@@H]1CO[C@@H]1OC(C)[C@@H](O)C(OC)C1OC (some centres unmarked) [YT16, 20-(4-(pyridine-3-yl)-1H-1,2,3-triazol-1-yl)-20-deoxodesmycosin]",–,11.5 mm,14.5 mm,16.5 mm,19 mm
CC[C@H]1OC(=O)C[C@@H](O)[C@H](C)[C@@H](O[C@@H]2OC(C)[C@@H](O)C(N(C)C)C2O)[C@@H](CCn2cc(-c3cccc(N)c3)nn2)C[C@@H](C)C(=O)/C=C/C(C)=C/[C@@H]1CO[C@@H]1OC(C)[C@@H](O)C(OC)C1OC (some centres unmarked) [YT17],–,12 mm,14 mm,18 mm,19.5 mm
CC[C@H]1OC(=O)C[C@@H](O)[C@H](C)[C@@H](O[C@@H]2OC(C)[C@@H](O)C(N(C)C)C2O)[C@@H](CCn2cc(-c3ccc(N)cc3)nn2)C[C@@H](C)C(=O)/C=C/C(C)=C/[C@@H]1CO[C@@H]1OC(C)[C@@H](O)C(OC)C1OC (some centres unmarked) [YT18],–,11 mm,14.5 mm,17 mm,19.5 mm
"CCCCc1cn(CC[C@H]2C[C@@H](C)C(=O)/C=C/C(C)=C/[C@H](CO[C@@H]3OC(C)[C@@H](O)C(OC)C3OC)[C@@H](CC)OC(=O)C[C@@H](O)[C@H](C)[C@H]2O[C@@H]2OC(C)[C@@H](O)C(N(C)C)C2O)nn1 (some centres unmarked) [YT20, 20-(4-butyl-1H-1,2,3-triazol-1-yl)-20-deoxodesmycosin]",9 mm,11.5 mm,16 mm,17.5 mm,20 mm
CC[C@H]1OC(=O)C[C@@H](O)[C@H](C)[C@@H](O[C@@H]2OC(C)[C@@H](O)C(N(C)C)C2O)[C@@H](CCn2cc(-c3ccc(-c4ccccc4)cc3)nn2)C[C@@H](C)C(=O)/C=C/C(C)=C/[C@@H]1CO[C@@H]1OC(C)[C@@H](O)C(OC)C1OC (some centres unmarked) [YT21],11.5 mm,13.5 mm,15.5 mm,18 mm,19 mm
"CCOC(=O)c1cn(CC[C@H]2C[C@@H](C)C(=O)/C=C/C(C)=C/[C@H](CO[C@@H]3OC(C)[C@@H](O)C(OC)C3OC)[C@@H](CC)OC(=O)C[C@@H](O)[C@H](C)[C@H]2O[C@@H]2OC(C)[C@@H](O)C(N(C)C)C2O)nn1 (some centres unmarked) [YT22, 20-(4-ethoxycarbonyl-1H-1,2,3-triazol-1-yl)-20-deoxodesmycosin]",7.5 mm,11.5 mm,14.5 mm,18 mm,21 mm
"CC[C@H]1OC(=O)C[C@@H](O)[C@H](C)[C@@H](O[C@@H]2OC(C)[C@@H](O)C(N(C)C)C2O)[C@@H](CCn2cc(-c3ccc(Oc4ccccc4)cc3)nn2)C[C@@H](C)C(=O)/C=C/C(C)=C/[C@@H]1CO[C@@H]1OC(C)[C@@H](O)C(OC)C1OC (some centres unmarked) [YT24, 20-(4-(4-phenoxyphenyl)-1H-1,2,3-triazol-1-yl)-20-deoxodesmycosin]",8.5 mm,12 mm,14.5 mm,17 mm,18 mm
"CC[C@H]1OC(=O)C[C@@H](O)[C@H](C)[C@@H](O[C@@H]2OC(C)[C@@H](O)C(N(C)C)C2O)[C@@H](CCn2cc(-c3cc(C)c(C)cc3C)nn2)C[C@@H](C)C(=O)/C=C/C(C)=C/[C@@H]1CO[C@@H]1OC(C)[C@@H](O)C(OC)C1OC (some centres unmarked) [YT25, 20-(4-(2,4,5-trimethylphenyl)-1H-1,2,3-triazol-1-yl)-20-deoxodesmycosin]",8 mm,12 mm,14 mm,17 mm,18.5 mm
"CC[C@H]1OC(=O)C[C@@H](O)[C@H](C)[C@@H](O[C@@H]2OC(C)[C@@H](O)C(N(C)C)C2O)[C@@H](CCn2cc(-c3ccc(C(C)(C)C)cc3)nn2)C[C@@H](C)C(=O)/C=C/C(C)=C/[C@@H]1CO[C@@H]1OC(C)[C@@H](O)C(OC)C1OC (some centres unmarked) [YT26, 20-(4-(4-t-butylphenyl)-1H-1,2,3-triazol-1-yl)-20-deoxodesmycosin]",–,9 mm,11.5 mm,14 mm,16 mm
"CCCCCOc1ccc(-c2cn(CC[C@H]3C[C@@H](C)C(=O)/C=C/C(C)=C/[C@H](CO[C@@H]4OC(C)[C@@H](O)C(OC)C4OC)[C@@H](CC)OC(=O)C[C@@H](O)[C@H](C)[C@H]3O[C@@H]3OC(C)[C@@H](O)C(N(C)C)C3O)nn2)cc1 (some centres unmarked) [YT27, 20-(4-(4-pentyloxyphenyl)-1H-1,2,3-triazol-1-yl)-20-deoxodesmycosin]",–,9 mm,11 mm,13 mm,16 mm
"CC[C@H]1OC(=O)C[C@@H](O)[C@H](C)[C@@H](O[C@@H]2OC(C)[C@@H](O)C(N(C)C)C2O)[C@@H](CCn2cc(Cn3nnc4ccccc43)nn2)C[C@@H](C)C(=O)/C=C/C(C)=C/[C@@H]1CO[C@@H]1OC(C)[C@@H](O)C(OC)C1OC (some centres unmarked) [YT28, 20-(4-(1-methyl-1H-benzotriazole)-1H-1,2,3-triazol-1-yl)-20-deoxodesmycosin]",–,11 mm,13 mm,16 mm,19 mm
"CC[C@H]1OC(=O)C[C@@H](O)[C@H](C)[C@@H](O[C@@H]2OC(C)[C@@H](O)C(N(C)C)C2O)[C@@H](CCn2cc(CNC)nn2)C[C@@H](C)C(=O)/C=C/C(C)=C/[C@@H]1CO[C@@H]1OC(C)[C@@H](O)C(OC)C1OC (some centres unmarked) [YT30, 20-(4-(N-methyl-methylamine)-1H-1,2,3-triazol-1-yl)-20-deoxodesmycosin]",–,–,–,–,10 mm
"CC[C@H]1OC(=O)C[C@@H](O)[C@H](C)[C@@H](O[C@@H]2OC(C)[C@@H](O)C(N(C)C)C2O)[C@@H](CCn2cc(C(C)(C)O)nn2)C[C@@H](C)C(=O)/C=C/C(C)=C/[C@@H]1CO[C@@H]1OC(C)[C@@H](O)C(OC)C1OC (some centres unmarked) [YT32, 20-(4-(1-methyl-1-hydroxylethyl)-1H-1,2,3-triazol-1-yl)-20-deoxodesmycosin]",–,–,9 mm,14 mm,16 mm
"CC[C@H]1OC(=O)C[C@@H](O)[C@H](C)[C@@H](O[C@@H]2OC(C)[C@@H](O)C(N(C)C)C2O)[C@@H](CCn2cc(CC(C)C)nn2)C[C@@H](C)C(=O)/C=C/C(C)=C/[C@@H]1CO[C@@H]1OC(C)[C@@H](O)C(OC)C1OC (some centres unmarked) [YT33, 20-(4-(2-methyl-propyl)-1H-1,2,3-triazol-1-yl)-20-deoxodesmycosin]",–,13 mm,16 mm,17 mm,20 mm
"CCCCCCCCCc1cn(CC[C@H]2C[C@@H](C)C(=O)/C=C/C(C)=C/[C@H](CO[C@@H]3OC(C)[C@@H](O)C(OC)C3OC)[C@@H](CC)OC(=O)C[C@@H](O)[C@H](C)[C@H]2O[C@@H]2OC(C)[C@@H](O)C(N(C)C)C2O)nn1 (some centres unmarked) [YT34, 20-(4-nonyl-1H-1,2,3-triazol-1-yl)-20-deoxodesmycosin]",–,11 mm,13 mm,14 mm,15 mm
"CC[C@H]1OC(=O)C[C@@H](O)[C@H](C)[C@@H](O[C@@H]2OC(C)[C@@H](O)C(N(C)C)C2O)[C@@H](CCn2cc(-c3cnc4ccccc4c3)nn2)C[C@@H](C)C(=O)/C=C/C(C)=C/[C@@H]1CO[C@@H]1OC(C)[C@@H](O)C(OC)C1OC (some centres unmarked) [YT35, 20-(4-(3-quinoline)-1H-1,2,3-triazol-1-yl)-20-deoxodesmycosin]",–,14 mm,17 mm,19 mm,21 mm
"CC[C@H]1OC(=O)C[C@@H](O)[C@H](C)[C@@H](O[C@@H]2OC(C)[C@@H](O)C(N(C)C)C2O)[C@@H](CCn2cc(CCCCO)nn2)C[C@@H](C)C(=O)/C=C/C(C)=C/[C@@H]1CO[C@@H]1OC(C)[C@@H](O)C(OC)C1OC (some centres unmarked) [YT36, 20-(4-(4-butanol)-1H-1,2,3-triazol-1-yl)-20-deoxodesmycosin]",–,–,–,–,9 mm
